Article PMC12024154, “A Study of Antioxidant, Antihyperlipidemic, and Anti-Glycation Effects of Alkylsulfonic Acids with Quinobenzothiazinyl Substituents: In Vitro and In Silico Investigations” (Antioxidants, 2025)
Values joined by “and” are separate entries in the source; they are usually repeats but may differ in a detail not shown here. Equal entries are not always repeated. Marks after values point to notes of the source that are not given here.

Tests used:
pancreatic lipase = target: T1, pancreatic lipase (Sus scrofa, UniProt P00591); experiment: In vitro pancreatic lipase inhibition assay; assay type: biochemical; conditions: porcine pancreas powder, pNPB substrate, n = 3
T1 construct: The enzyme source utilized was porcine pancreas powder; from tissue; host or cells: porcine pancreas (powder)
T1 sequence (P00591 1-450): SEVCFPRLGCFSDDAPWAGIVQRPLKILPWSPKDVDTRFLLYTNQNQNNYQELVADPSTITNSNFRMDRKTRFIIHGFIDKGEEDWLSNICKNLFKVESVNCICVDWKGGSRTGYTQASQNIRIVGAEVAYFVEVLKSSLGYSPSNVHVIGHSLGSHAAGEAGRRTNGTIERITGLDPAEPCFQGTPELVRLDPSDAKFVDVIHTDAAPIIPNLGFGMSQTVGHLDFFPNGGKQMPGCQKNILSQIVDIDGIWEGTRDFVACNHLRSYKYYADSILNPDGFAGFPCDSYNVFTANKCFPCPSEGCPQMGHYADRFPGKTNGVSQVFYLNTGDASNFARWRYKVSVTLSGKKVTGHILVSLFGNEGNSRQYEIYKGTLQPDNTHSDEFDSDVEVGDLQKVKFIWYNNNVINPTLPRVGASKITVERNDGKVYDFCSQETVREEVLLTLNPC
Method: The pancreatic lipase inhibition assay is conducted following the method outlined by Ajayi et al. (2022) with minor modifications. The enzyme source utilized was porcine pancreas powder at a concentration of 0.1 mg·mL^−1 in Tris–HCl buffer, pH 8.0. In a 96-well plate, 50 μL of phosphate–buffer solution (pH 7.0), 50 μL of pNPB (500 μM), and 50 μL of test samples 5–12 with concentrations ranging from 0.0245 to 0.268 μM were pipetted and mixed thoroughly. Fifty microliters of pancreatic enzyme were added to the resultant mixture and incubated at room temperature for 30 min. The resulting yellow p-nitrophenol was measured spectrophotometrically at 405 nm. Control was conducted concurrently without the addition of a test sample. […] PL inhibition was determined using the following formula: PL inhibition (%) = [(Activity of control − activity of test)/activity of control] × 100. The IC50 is determined utilizing GraphPad 10 software (GraphPad Software, LLC, San Diego, CA, USA).

[1] = tested on: differentiated 3T3-L1 adipocytes; experiment: Intracellular ROS production (DCFH-DA, AAPH-stimulated); assay type: cell-based; conditions: 24 h treatment
Method: Differentiation of 3T3-L1 cells was performed within one week through culturing in MDI medium, which consisted of 0.5 mM 3-isobutyl-1-methylxanthine, 1 μM dexamethasone, and 1 μg/mL insulin, for 48 h in 10% FBS-DMEM. Subsequently, the cells were transferred to fresh 10% FBS and 90% DMEM supplemented with 1 μg/mL insulin.
On day 8 of differentiation, intracellular ROS levels in 3T3 L1 cells were assessed using the oxidation-sensitive fluorogenic probe 2′,7′-dichlorodihydrofluorescein-diacetate (DCFH-DA), following a method established by Forbes-Hernández et al., with minor modification. Post-differentiation, the cells were treated with the respective doses of the compounds for a period of 24 h. Following this, the cells underwent incubation with DCFH-DA (25 μM) at 37 °C for a duration of 30 min in the absence of light. Consequently, the cells were stimulated with 1 mM AAPH as a ROS initiator for a duration of 1 h. The density of light was measured using a spectrofluorometer with an excitation wavelength of 480 nm and an emission wavelength of 530 nm.

[2] = DPPH radical scavenging assay; conditions: average inhibition, concentration range 0.0245 to 0.268 μM, n = 3
Method: The DPPH (2,2-diphenyl-1-picrylhydrazyl) radical scavenging assay was conducted to evaluate the antioxidant activity of compounds 5–12 following the method outlined by Chong et al. with minor modifications. A 1 mL sample with a concentration range of 0.0245 to 0.268 μM was introduced to a 1 mL methanol solution of DPPH ([…]) and vortexed. Following a 20-min incubation at 25 °C, absorbance was assessed at 527 nm using a UV-vis spectrophotometer, with blank as reference. Ascorbic acid served as a positive control. The negative control consists of a setup without samples (ascorbic acid and synthetic compounds). The percentage of DPPH free radical inhibition was determined using Equation (1) provided below.
% of DPPH radical scavenging activity was calculated using the following equation:(1) AA%=100−[Abs sample−Abs blank100/Abs control] • Equation (1) where: • Abs control = absorbance of the control. • Abs sample = absorbance of the sample.

BSA-glucose = BSA-glucose antiglycation assay; set-up: species or system bovine; conditions: 7 days, 37 °C, pH 7.4, n = 3; read-out: BSA-glucose glycation IC50
Method: The BSA-glucose assay is conducted according to the methodology outlined by Mridula et al.. […] The reaction mixture was thoroughly mixed and incubated for 5 min. Following incubation, 0.5 mL of sodium azide was added to each tube. The tubes underwent incubation at 37 °C in the absence of light for a duration of seven days. Aminoguanidine is used as a positive control. Following a seven-day incubation period, the samples were analyzed with the Omega microplate reader (BMG LABTECH, Ortenberg, Germany), measuring fluorescence intensity at an excitation wavelength of 370 nm and an emission wavelength of 440 nm. The experiment was conducted in triplicate.

[3] = Chelating capacity (ferrozine) assay; conditions: 0.0245 to 0.268 μM
Method: Chelating capacity assay is conducted following the method outlined by Chong et al. with minor modifications. Samples of 0.1 mL with concentrations ranging from 0.0245 to 0.268 μM were combined with 0.5 mL of a […] and 0.2 mL of a 5 mM ferrozine solution. Then, a 10-min incubation at room temperature, absorbance was recorded at 562 nm using a blank solution in a 96-well plate reader. EDTA served as a positive control. The negative control consists of a sample devoid of any substances, including EDTA and synthetic compounds. The percentage of ferrous chelation was calculated using the Equation (1).

Row | Compound | IC50 (pancreatic lipase) | IC50 (BSA-glucose) [nM] | % ROS Generation ([1]; 0.02 μM) | % ROS Generation ([1]; 0.06 μM) | % ROS Generation ([1]; 0.1 μM) | % ROS Generation ([1]; 0.2 μM) | % ROS Generation ([1]; 0.25 μM) | DPPH mean inhibition [2] [%] | Chelating activity [3]
1 | O=S(=O)(O)CCCN1c2ccc(Cl)cc2Sc2cc3ccccc3nc21 [Compound 7, 3-(9-chloro[3,2-b]benzo[1,4]thiazin-6-yl)propane-1-sulfonic acid] | 890 nM | 4130 | 143.18 ± 10.65% and 143.18 ± 10.65 ^a % | 113.48 ± 10.27 ^a % | 33.27 ± 6.16 ^b % | 15.63 ± 2.74 ^b % | 14.96 ± 1.25% and 14.96 ± 1.25 ^b % | 8.47 | –
2 | O=S(=O)(O)CCCCN1c2ccc(F)cc2Sc2cc3ccccc3nc21 [Compound 10, 4-(9-fluoroquino[3,2-b]benzo[1,4]thiazin-6-yl)butane-1-sulfonic acid] | 477 nM | 2240 | 103.85 ± 1.17% and 103.85 ± 1.17 ^a % | 74.74 ± 2.90 ^b % | 69.81 ± 5.23 ^b % | 52.56 ± 4.14 ^c % | 47.16 ± 3.71% and 47.16 ± 3.71 ^c % | 6.21 | –
3 | O=S(=O)(O)CCCCN1c2ccc(Cl)cc2Sc2cc3ccccc3nc21 [Compound 11, 4-(9-chloro[3,2-b]benzo[1,4]thiazin-6-yl)butane-1-sulfonic acid] | 870 nM | 1890 | 104.90 ± 5.3% and 104.90 ± 5.31 ^a % | 35.75 ± 11.03 ^c % | 46.64 ± 6.13 ^bc % | 75.96 ± 2.21 ^ab % | 57.18 ± 1.66% and 57.18 ± 1.66 ^bc % | 8.47 | –
4 | O=C(O)CN(CCN(CC(=O)O)CC(=O)O)CC(=O)O [EDTA] | – | – | – | – | – | – | – | – | increasing inhibitory action with increased concentration
5 | N=C(N)NN [aminoguanidine, reference compound] | – | 310 | – | – | – | – | – | – | –
6 | O=C1O[C@H]([C@@H](O)CO)C(O)=C1O [ascorbic acid, reference compound] | – | – | – | – | – | – | – | 54.24 | –

The next lines start with results.

Row | IC50 (pancreatic lipase) | IC50 (BSA-glucose) [nM] | Compound | % ROS Generation ([1]; 0.02 μM) | % ROS Generation ([1]; 0.06 μM) | % ROS Generation ([1]; 0.1 μM) | % ROS Generation ([1]; 0.2 μM) | % ROS Generation ([1]; 0.25 μM) | DPPH mean inhibition [2] [%] | Chelating activity [3]
7 | 1570 nM | 790 | O=S(=O)(O)CCCN1c2ccccc2Sc2cc3ccccc3nc21 [Compound 5, 3-(quino[3,2-b]benzo[1,4]thiazin-6-yl)propane-1-sulfonic acid] | 208.69 ± 13.07% and 208.69 ± 13.07 ^a % | 142.87 ± 15.43 ^b % | 76.83 ± 0.0 ^c % | 39.72 ± 6.30 ^c % | 39.24 ± 0.0 ^c % | 5.49 | –
8 | 1240 nM | 1570 | O=S(=O)(O)CCCN1c2ccc(F)cc2Sc2cc3ccccc3nc21 [Compound 6, 3-(9-fluoroquino[3,2-b]benzo[1,4]thiazin-6-yl)propane-1-sulfonic acid] | 137.15 ± 9.37 ^a % | 126.66 ± 2.43 ^a % | 88.31 ± 3.13 ^b % | 37.15 ± 9.37% and 69.68 ± 7.12 ^c % | 63.73 ± 1.04% and 63.73 ± 1.04 ^c % | 3.45 | –
9 | 1320 nM | 980 | CSc1ccc2c(c1)Sc1cc3ccccc3nc1N2CCCS(=O)(=O)O [Compound 8, 3-(9-methylthio[3,2-b]benzo[1,4]thiazin-6-yl)propane-1-sulfonic acid] | 149.62 ± 6.71% and 149.62 ± 6.71 ^a % | 101.04 ± 7.69 ^b % | 71.47 ± 2.98 ^c % | 62.94 ± 4.59 ^c % | 50.89 ± 2.85% and 50.89 ± 2.85 ^d % | 7.36 | –
10 | 670 nM and 477 nM | 1090 | O=S(=O)(O)CCCCN1c2ccccc2Sc2cc3ccccc3nc21 [Compound 9, 4-(quino[3,2-b]benzo[1,4]thiazin-6-yl)butane-1-sulfonic acid] | 169.62 ± 13.81% and 169.62 ± 13.81 ^a % | 151.45 ± 25.13 ^ab % | 151.54 ± 32.18 ^ab % | 61.36 ± 1.58 ^c % | 26.38 ± 1.73% and 26.38 ± 1.73 ^c % | 2.45 | –
11 | 566 nM | 1800 | CSc1ccc2c(c1)Sc1cc3ccccc3nc1N2CCCCS(=O)(=O)O [Compound 12, 4-(9-methylthio[3,2-b]benzo[1,4]thiazin-6-yl)butane-1-sulfonic acid] | 119.82 ± 5.12% and 119.82 ± 5.12 ^a % | 102.85 ± 1.47 ^b % | 97.18 ± 2.61 ^b % | 80.38 ± 1.72 ^c % | 60.12 ± 1.74% and 60.12 ± 1.74 ^d % | 5.53 | –
